Measured values: patent US20160300038A1, “METHODS OF N[…] DRUG CONCENTRATIONS IN URINE USING PATIENT […] DATA AND TESTING FOR POTENTIAL NON-[…] A CHRONIC DRUG TREATMENT REGIMEN” (Ameritox, Ltd., priority 2015, published 2016)

Assay: Urine drug testing (UDT): drug concentration of the primary metabolite (parent drug) in patient urine, e.g. LC/MSMS
Protocol: Non-limiting examples for determining the amount of a drug in fluid of a subject include fluorescence polarization immunoassay (“FPIA,” Abbott Diagnostics), mass spectrometry (MS), gas chromatography-mass spectrometry (GC-MS-MS), liquid chromatography-mass spectrometry (LC-MS-MS), liquid chromatography—exact mass mass spectrometry (LC/QTOF) and the like. […] In one embodiment, a raw level, amount, or concentration of a drug in urine of a subject is measured and reported as a ratio, percent, or in relationship to the amount of fluid. The amount of fluid may be expressed as a unit volume, for example, in L, mL, μL, pL, ounce, etc. In one embodiment, the raw amount of a drug in Urine of a subject may be expressed as an absolute level or value, for example, in g, mg, μg, ng, pg, etc.
Then urine from the subject is tested. […] These values are within normal ranges so the data were processed.
Of the patients considered in this sample 70% were females and 30% were males.

## COc1ccc2c3c1O[C@H]1C(=O)CC[C@H]4[C@@H](C2)N(C)CC[C@]314 [hydrocodone]
Hydrocodone model population, approximately 100,000 patient results, average daily dosage 30 mg
  average urine drug concentration: 1784 ng/m L

## Cc1nnc2n1-c1ccc(Cl)cc1C(c1ccccc1)=NC2 [alprazolam]
Example 7, fifty randomly selected alprazolam patients, average daily dosage 2 mg
  average urine drug concentration: 155 ng/m L
Alprazolam model population, approximately 280,000 patient results, average daily dosage 3 mg
  average urine drug concentration: 375 ng/mL

## O=C1Nc2ccc(Cl)cc2C(c2ccccc2)=NC1O (stereo not drawn) [oxazepam]
Example 8, fifty patients prescribed diazepam or temazepam (oxazepam as metabolite), average daily dosage 17 mg
  average urine drug concentration: 1096 ng/m L
Oxazepam model population, approximately 207,000 patient results, prescribed diazepam and temazepam, average daily dosage 23 mg
  average oxazepam urine drug concentration: 1819 ng/m L

## COc1ccc2c3c1O[C@H]1C(=O)CC[C@@]4(O)[C@@H](C2)N(C)CC[C@]314 [oxycodone]
Oxycodone model population, approximately 47,000 patient results, average daily dosage 36 mg
  average urine drug concentration: 2120 ng/m L
